Data taken from patent US20260132118A1, “SALT FORMS OF R-MDMA AND METHODS USING THE SAME” (EmpathBio, Inc., priority 2022, published 2026).
“And” between values parts separate entries of the source, which are not always exact repeats. Identical values can stand only once.

Assays:
[1] = background; cited from earlier work
[2] = Physical stability testing: stressing solids at elevated relative humidity or storage, monitored by XRPD; format: physicochemical
[3] = Approximate aqueous solubility by aliquot addition; settings: for Solubility: approximate aqueous solubility; for Observations (solubility experiment): aqueous
From the text: The small sample sizes, aliquot volumes, and kinetic nature of the solubility measurements contribute a degree of uncertainty to the reported values.

[4] = Dynamic Vapor Sorption (DVS); format: physicochemical; settings: for DVS weight loss: desorption 95-6% RH; for DVS weight loss / DVS weight gain: 10% RH increments, nitrogen purge; for Solid form post-DVS (XRPD): post-DVS solids; for DVS weight gain: sorption 5-95% RH
Method: DVS data was collected on a Surface Measurement System DVS Intrinsic instrument. Samples were not dried prior to analysis. […] The equilibrium criterion used for analysis was less than 0.0100% weight change in 5 minutes with a maximum equilibration time of 3 hours. Data was not corrected for the initial moisture content of the samples.

[5] = listed as O-methyl Mandelate Form A

SMILES: CNC(C)Cc1ccc2c(c1)OCO2 (centres unmarked) [MDMA free base, 3,4-Methylenedioxymethamphetamine]
- Solubility in water (in words) [1]: insoluble in water

SMILES: CNC(C)Cc1ccc2c(c1)OCO2.Cl (centres unmarked) [MDMA hydrochloride salt]
- Solubility in water (in words) [1]: soluble in water

SMILES: CN[C@H](C)Cc1ccc2c(c1)OCO2.O=[N+]([O-])O [Nitrate Form A]
- Physical stability upon stressing at ~90% RH ([2]; 13 days): remained physically stable
- Solubility [3]: 3 ± 1 mg/mL and 3 mg/mL
- Observations (solubility experiment) [3]: clear solution

SMILES: CN[C@H](C)Cc1ccc2c(c1)OCO2.COC(C(=O)O)c1ccccc1 [O-Methyl Mandelate Form A]
- Physical stability upon stressing at ~90% RH ([2]; 8 days): remained physically stable
- DVS desorption behaviour / hysteresis ([4]; 5% to 95% RH): all mass gained in sorption was lost on desorption with minimal hysteresis
- Hygroscopicity (in words) ([4]; DVS isotherm): low kinetic hygroscopicity
- Kinetic hygroscopicity (sorption/desorption) ([4]; between 5% and 95% RH): 0.2%
- DVS weight loss [4]: 0.21±0.02%
- DVS weight loss [4, 5]: 0.21%
- Solid form post-DVS (XRPD) [4]: remained unchanged
- Solid form post-DVS (XRPD) [4, 5]: O-Methyl Mandelate Form A
- DVS weight gain [4]: 0.18±0.02% and 0.18%
- DVS weight gain [4, 5]: 0.18%
- Solubility [3]: 26 ± 1 mg/mL and ~26 mg/mL
- Observations (solubility experiment) [3]: clear solution
